Assay results taken from article PMC9739180, “Discovery of a Flavonoid FM04 as a Potent Inhibitor to Reverse P-Glycoprotein-Mediated Drug Resistance in Xenografts and Improve Oral Bioavailability of Paclitaxel” (International Journal of Molecular Sciences, 2022).
Where two headings read alike, the source gives them in different places.

Key:
[1] = biological target: T1, MRP1 (Homo sapiens, UniProt P33527); assay: MRP1-modulating activity in 2008/MRP1 cells (MTS); type: cell-based
T1 construct: expressed in transfected cells; host or cells: 2008/MRP1 (human ovarian cancer)
Method: The final volume in each well of the 96-well plate was 200 μL. The plate was then incubated for 5 days at 37 °C. The cell viability was determined using an MTS assay as reported previously.

[2] = Cytotoxicity assay (MTS, 3 days), LCC6MDR; type: cell-based, human; conditions: human, LCC6MDR cells
Method: (§1) To each well of 96-well plate, 10,000 cells of LCC6, LCC6MDR or L929 were incubated with different concentrations of FM04 (0, 0.4, 1.2, 3.7, 11, 33 and 100 μM). The final volume in each well of 96-well plate was 100 μL and the plate was incubated for 3 days at 37 °C. The cell viability was determined using MTS assay as reported previously.

[3] = tested on: LCC6MDR; assay: Cytotoxicity assay (MTS, 3 days), LCC6MDR; type: cell-based, human; conditions: at 61 nM to 153 nM
Method: as §1

[4] = Cytotoxicity assay (MTS, 3 days), L929; type: cell-based; conditions: L929 fibroblast cells; mouse fibroblast cell line
Method: as §1

[5] = biological target: T2, CYP3A4 (Homo sapiens, UniProt P08684); assay: PTX metabolism in human liver microsomes: p3-OHP formation; type: in vitro ADME; conditions: HLM
T2 construct: tissue Research Institute for Liver Diseases (Shanghai); host or cells: 50-donor pooled human liver microsomes
Method: N = 2–3 independent experiments. […] N = 2–3 independent experiments.
Source parameters were as follows, gas temp (350 °C), gas flow (8 L/min), nebulizer (35 psi) and capillary (4000 V). […] Milli-Q with 0.1% formic acid was used as the aqueous phase.

[6] = biological target: T3, P-gp (Homo sapiens, UniProt P08183); assay: P-gp-ATPase activity (P-gp-Glo assay); type: biochemical; design: purchased Promega
Method: (§2) N = 2–3 independent experiments. […] After incubation, the cells were lysed and spun down. […] N = 2–6 independent experiments. […] A 1% DMSO was a solvent control. […] N = 2–3 independent experiments.
P-gp-ATPase activity was measured by a P-gp-Glo assay system (Promega) with a human P-gp membrane, as reported previously. […] The reaction was initiated by the addition of MgATP and incubated at 37 °C for 1 h. After adding the ATP detection reagent, the sample was incubated at room temperature for 20 min before measuring the remaining ATP signal of luminescence by a Clariostar microplate reader (BMG Labtech). Vanadate-inhibitable P-gp ATPase activity was determined by calculating the luminescence signal in the samples with or without sodium vanadate.

[7] = biological target: T3, P-gp; assay: Intracellular FM04 level in LCC6MDR and LCC6 cells (P-gp transport substrate test); type: cell-based; design: expressed in transfected cells; host or cells: MDA435/LCC6MDR (human melanoma); conditions: 1-10 µM, LCC6MDR vs LCC6
Method: as §2
P-gp is a transporter with broad substrate specificity. To explore whether FM04 can be pumped by P-gp and work as a competitive inhibitor to prevent the drug substrate from binding, the following experiment was performed. The intracellular level of FM04 was compared in P-gp overexpressing LCC6MDR cells and non-P-gp parental LCC6 cells after its treatment.

[8] = tested on: human melanoma MDA435/LCC6 xenograft; assay: In vivo efficacy of oral co-administration in human melanoma MDA435/LCC6 xenograft; conditions: PTX 12 mg/kg I.V., (q1d × 4) × 2 rounds
[9] = design: method as in PMID 23090875; conditions: oral PTX 10 mg/kg, cited from earlier work

T3 sequence (P08183 whole entry): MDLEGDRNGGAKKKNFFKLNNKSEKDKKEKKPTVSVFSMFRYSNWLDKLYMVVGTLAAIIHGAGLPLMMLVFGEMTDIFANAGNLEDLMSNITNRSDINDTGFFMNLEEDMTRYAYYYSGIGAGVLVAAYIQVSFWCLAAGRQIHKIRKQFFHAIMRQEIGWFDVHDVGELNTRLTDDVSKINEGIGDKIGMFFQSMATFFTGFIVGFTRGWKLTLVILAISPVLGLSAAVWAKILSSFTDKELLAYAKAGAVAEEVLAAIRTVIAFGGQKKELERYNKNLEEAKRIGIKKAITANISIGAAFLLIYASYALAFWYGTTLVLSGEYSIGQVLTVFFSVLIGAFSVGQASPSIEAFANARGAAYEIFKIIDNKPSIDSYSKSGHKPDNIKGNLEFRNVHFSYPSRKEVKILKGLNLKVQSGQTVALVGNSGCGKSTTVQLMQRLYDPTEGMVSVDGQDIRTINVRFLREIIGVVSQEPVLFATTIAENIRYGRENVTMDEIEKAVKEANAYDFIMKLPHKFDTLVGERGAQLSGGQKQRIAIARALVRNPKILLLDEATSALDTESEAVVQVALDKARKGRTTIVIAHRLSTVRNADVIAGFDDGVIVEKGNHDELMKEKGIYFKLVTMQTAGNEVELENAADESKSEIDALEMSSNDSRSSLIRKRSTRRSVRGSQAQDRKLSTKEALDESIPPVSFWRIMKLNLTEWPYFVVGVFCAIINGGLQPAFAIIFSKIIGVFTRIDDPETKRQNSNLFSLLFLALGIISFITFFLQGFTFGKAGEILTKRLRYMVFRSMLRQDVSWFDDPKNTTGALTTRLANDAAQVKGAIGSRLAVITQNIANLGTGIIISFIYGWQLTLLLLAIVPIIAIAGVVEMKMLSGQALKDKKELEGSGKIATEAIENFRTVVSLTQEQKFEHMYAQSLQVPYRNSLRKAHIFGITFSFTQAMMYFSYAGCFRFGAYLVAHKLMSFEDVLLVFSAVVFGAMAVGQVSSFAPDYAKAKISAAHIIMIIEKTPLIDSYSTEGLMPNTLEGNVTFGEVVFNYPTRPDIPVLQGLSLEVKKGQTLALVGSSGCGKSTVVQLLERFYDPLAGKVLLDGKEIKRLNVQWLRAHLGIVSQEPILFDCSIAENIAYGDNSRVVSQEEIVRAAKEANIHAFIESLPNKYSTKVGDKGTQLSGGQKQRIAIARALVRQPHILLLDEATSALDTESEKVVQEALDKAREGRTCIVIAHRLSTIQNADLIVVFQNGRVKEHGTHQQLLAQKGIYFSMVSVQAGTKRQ
T1 sequence (P33527 whole entry): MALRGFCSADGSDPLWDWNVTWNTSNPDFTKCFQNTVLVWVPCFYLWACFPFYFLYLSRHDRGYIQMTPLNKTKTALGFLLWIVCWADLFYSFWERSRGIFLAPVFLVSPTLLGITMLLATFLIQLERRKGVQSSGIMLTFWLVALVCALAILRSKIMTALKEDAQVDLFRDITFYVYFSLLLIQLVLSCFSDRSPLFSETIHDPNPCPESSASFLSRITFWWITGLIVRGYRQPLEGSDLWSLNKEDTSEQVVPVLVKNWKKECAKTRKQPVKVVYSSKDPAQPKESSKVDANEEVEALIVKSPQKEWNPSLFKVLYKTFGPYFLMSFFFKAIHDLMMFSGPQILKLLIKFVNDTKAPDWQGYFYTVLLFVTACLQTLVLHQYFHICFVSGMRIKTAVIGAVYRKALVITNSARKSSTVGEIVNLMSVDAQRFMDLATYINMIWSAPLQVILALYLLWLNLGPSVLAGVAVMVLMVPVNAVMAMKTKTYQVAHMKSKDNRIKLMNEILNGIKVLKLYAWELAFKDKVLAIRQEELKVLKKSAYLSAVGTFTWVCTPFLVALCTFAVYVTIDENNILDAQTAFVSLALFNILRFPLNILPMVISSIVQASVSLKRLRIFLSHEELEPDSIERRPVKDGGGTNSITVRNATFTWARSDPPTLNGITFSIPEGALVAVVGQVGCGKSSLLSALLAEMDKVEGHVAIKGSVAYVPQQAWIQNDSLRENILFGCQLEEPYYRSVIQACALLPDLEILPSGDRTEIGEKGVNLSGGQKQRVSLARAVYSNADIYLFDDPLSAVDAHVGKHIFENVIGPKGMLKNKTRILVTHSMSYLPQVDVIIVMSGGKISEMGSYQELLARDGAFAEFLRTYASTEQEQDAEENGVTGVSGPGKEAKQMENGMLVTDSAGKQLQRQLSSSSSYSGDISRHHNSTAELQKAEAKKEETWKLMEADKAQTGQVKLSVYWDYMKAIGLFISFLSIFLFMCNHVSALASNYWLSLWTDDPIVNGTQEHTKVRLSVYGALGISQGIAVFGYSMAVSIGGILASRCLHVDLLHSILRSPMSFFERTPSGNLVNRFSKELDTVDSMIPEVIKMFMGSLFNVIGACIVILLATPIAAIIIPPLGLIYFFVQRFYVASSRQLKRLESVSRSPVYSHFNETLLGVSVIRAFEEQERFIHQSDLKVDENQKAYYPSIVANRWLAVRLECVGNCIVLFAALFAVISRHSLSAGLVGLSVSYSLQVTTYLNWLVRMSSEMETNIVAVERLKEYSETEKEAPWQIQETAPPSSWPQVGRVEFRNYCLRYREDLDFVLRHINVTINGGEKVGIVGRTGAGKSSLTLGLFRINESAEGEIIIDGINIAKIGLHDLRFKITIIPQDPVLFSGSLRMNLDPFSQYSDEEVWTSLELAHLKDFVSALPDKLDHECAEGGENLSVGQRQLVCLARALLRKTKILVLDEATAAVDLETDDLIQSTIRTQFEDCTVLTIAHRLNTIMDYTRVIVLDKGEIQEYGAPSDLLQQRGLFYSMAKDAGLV
T2 sequence (P08684 whole entry): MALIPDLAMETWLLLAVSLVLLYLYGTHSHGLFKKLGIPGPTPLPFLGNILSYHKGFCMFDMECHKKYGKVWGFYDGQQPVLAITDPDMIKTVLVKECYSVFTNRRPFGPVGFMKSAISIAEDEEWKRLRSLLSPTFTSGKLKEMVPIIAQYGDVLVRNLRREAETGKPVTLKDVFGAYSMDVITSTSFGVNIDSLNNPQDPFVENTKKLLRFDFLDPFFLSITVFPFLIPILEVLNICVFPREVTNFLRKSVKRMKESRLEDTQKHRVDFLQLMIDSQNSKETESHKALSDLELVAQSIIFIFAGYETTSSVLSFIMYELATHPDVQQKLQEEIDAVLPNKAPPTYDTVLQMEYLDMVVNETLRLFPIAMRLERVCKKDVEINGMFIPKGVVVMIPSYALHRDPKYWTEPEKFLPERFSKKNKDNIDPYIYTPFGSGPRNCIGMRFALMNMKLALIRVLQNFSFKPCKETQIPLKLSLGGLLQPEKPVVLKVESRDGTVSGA

SMILES	reversal of MRP1-mediated DOX resistance ([1]; 1 μM, 2008/MRP1)	RF, DOX in 2008/MRP1 ([1]; IC50 without modulator / IC50 with 1 µM modulator)	IC50 at 3 days [2] [µM]	cytotoxicity of FM04 alone towards LCC6MDR cells [3]	IC50 at 3 days [4] [µM]	reduction in p3-OHP ([5]; FM04 10 μM) [%]	reduction in p3-OHP ([5]; FM04 20 μM) [%]	P-gp ATPase activity, fold of basal ([6]; 3 μM) [fold]	P-gp ATPase activity, fold of basal ([6]; 100 μM) [fold]	Transport substrate of P-gp [7]	Tumor inhibition on day 31 (%) [8] [%]	fold increase of oral plasma AUC of PTX relative to wild type mice ([9]; Cyp3a KO (Cyp3a−/−) mice) [fold]	fold increase of oral plasma AUC of PTX relative to wild type mice ([9]; P-gp KO (Mdr1a/b−/−) mice) [fold]	fold increase of oral plasma AUC of PTX relative to wild type mice ([9]; combined P-gp and Cyp3a KO mice) [fold]
O=c1cc(-c2ccc(OCCOCCNCc3ccccc3)cc2)oc2ccccc12 [FM04, 2-(4-(2-(2-(benzylamino)ethoxy)ethoxy)phenyl)-4H-chromen-4-one]	did not reverse	1.2	5.7 ± 1.5	did not exhibit cytotoxicity	33	42	51	1.5	3.3	not a transport substrate of P-gp				
CC(=O)O[C@H]1C(=O)[C@@]2(C)[C@H]([C@H](OC(=O)c3ccccc3)[C@]3(O)C[C@H](OC(=O)[C@H](O)[C@@H](NC(=O)c4ccccc4)c4ccccc4)C(C)=C1C3(C)C)[C@]1(OC(C)=O)CO[C@@H]1C[C@@H]2O [PTX, paclitaxel]											97	1.5	12.4	27.6
